Laboratory results as given in PubChem BioAssay (NCI).
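Interpolation was linear, between the two tested concentrations surrounding the appropriate level; five concentrations were tested over 48 hours in 96-well plates. Here, GI50 denotes the concentration required for 50% inhibition of growth. The concentration for full growth arrest is given as TGI.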

Tests used:
Experiment in all cases: NCI tumour cell line growth inhibition, 48 h
[1] = system: OVCAR-5 ovarian
[2] = system: HOP-92 NSCLC
[3] = system: K-562 leukemia
[4] = system: CCRF-CEM leukemia
[5] = system: DU-145 prostate
[6] = system: NCI-H226 lung
[7] = system: TK-10 renal
[8] = system: CAKI-1 renal
[9] = system: MALME-3M melanoma
[10] = system: BT-549 breast

Row | SMILES | TGI [1] | TGI [2] | TGI [3] | TGI [4] | TGI [5] | TGI [6] | TGI [7] | TGI [8] | TGI [9] | GI50 [1] | GI50 [2] | GI50 [10] | TGI [10] | GI50 [5] | GI50 [6] | GI50 [7] | GI50 [9]
1 | O=S(=O)(c1ccc(NC2=NC(c3ccc(O)cc3)(c3ccccc3O)c3ccccc32)cc1)c1ccc(NC2=NC(c3ccc(O)cc3)(c3ccccc3O)c3ccccc32)cc1 (configuration not stated) | > 73.6 µM | > 70.6 µM | > 100 µM | > 100 µM | > 35.4 µM | 19.2 µM | > 100 µM | 59.4 µM | 13.1 µM |  |  |  |  |  |  |  | 
2 | Cc1cc(C)nc(SC2=C(Nc3ccc(C)c(Cl)c3)C(=O)N(Cc3ccccc3)C2=O)n1 | > 160 µM | > 160 µM |  |  | > 160 µM | > 160 µM | > 160 µM |  | > 160 µM | > 160 µM | > 160 µM | > 160 µM | > 160 µM | > 160 µM | > 160 µM | > 160 µM | > 160 µM
3 | Cc1cccc(Nc2nn3c(=O)c4c5c(sc4nc3s2)CCCC5)c1 | > 100 µM | > 100 µM | > 100 µM | > 100 µM | > 100 µM | > 100 µM | > 100 µM | > 100 µM |  |  |  |  | 68.7 µM |  |  |  | 
4 | C[n+]1cccc2c(=O)c3ccccc3oc21 | > 100 µM | > 100 µM | > 100 µM | > 100 µM | > 100 µM | > 100 µM | > 100 µM | > 100 µM | > 100 µM |  |  |  |  |  |  |  | 
5 | O=C1C[C@@H](C(=O)OCc2ccccc2)NC(=O)C[C@@H](C(=O)OCc2ccccc2)NC(=O)C[C@@H](C(=O)OCc2ccccc2)N1 | > 100 µM | > 60.7 µM | 21.8 µM | 2.01 µM | > 100 µM | > 100 µM | 73.6 µM | > 100 µM |  |  |  |  | > 100 µM |  |  |  | 
6 | CCOc1ccc(N/C(=C(/C(Cl)=C(/Cl)N(CC)CC)[N+](=O)[O-])n2nnc3ccccc32)cc1 | > 100 µM |  | > 100 µM | > 100 µM |  | > 100 µM |  | 26.9 µM | 39 µM |  |  |  | 49.4 µM |  |  |  | 
7 | C=C[C@@H](C)[C@H](NS(=O)(=O)c1ccc(C)cc1)C(=O)OCC | > 100 µM |  | > 100 µM | > 100 µM | > 100 µM | > 100 µM | > 100 µM |  | > 100 µM |  |  |  | > 100 µM |  |  |  | 
8 | NCCCN(CCCN(C(=O)Nc1ccccc1)c1ccccc1)C(=O)Nc1ccccc1 | > 100 µM | 92 µM | > 100 µM | > 100 µM | > 100 µM | > 100 µM | > 100 µM |  | 38.9 µM |  |  |  | > 100 µM |  |  |  | 
9 | Cc1cc(S(=O)(=O)N/C(=C(\C#N)C(=O)c2ccc(Cl)cc2)[n+]2ccc(N(C)C)cc2)c([S-])cc1Cl | > 100 µM |  | > 100 µM | > 100 µM | > 100 µM | > 100 µM | > 100 µM | > 100 µM | 80 µM |  |  |  | > 100 µM |  |  |  | 
10 | CCOC(=O)CCC(NC(=O)OCc1ccccc1)C(=O)NC(CCC(=O)OCC)C(=O)NC(CCC(=O)OCC)C(=O)NC(CCC(=O)OCC)C(=O)NC(CCC(=O)OCC)C(=O)NC(CCC(=O)OCC)C(=O)NC(CCC(=O)OCC)C(=O)OCC (configuration not stated) | > 100 µM |  | > 100 µM | > 100 µM | > 100 µM | > 100 µM | > 100 µM | > 100 µM | > 100 µM |  |  |  | > 100 µM |  |  |  | 
11 | COP(=O)(OC)C(Cc1cn(C(C)=O)c2ccccc12)C(=O)O (configuration not stated) | > 100 µM | > 100 µM | > 100 µM | > 100 µM | > 100 µM | > 100 µM | > 100 µM | > 100 µM |  |  |  |  |  |  |  |  | 
12 | COc1cc2ccc(=O)oc2cc1O | 514 µM | > 522 µM | 562 µM | 328 µM |  | 283 µM |  | 401 µM | 489 µM |  |  |  |  |  |  |  | 
13 | C/C=C/c1cc(=O)c([C@@H]2OC(=O)c3cc(OC)cc(OC)c32)co1 |  | > 100 µM | > 100 µM | > 100 µM |  | > 100 µM | > 100 µM | > 100 µM |  |  |  |  |  |  |  |  | 
14 | Cc1ccc2c(=O)cc(-c3ccc(Cl)s3)[nH]c2n1 | > 100 µM | > 100 µM | > 100 µM | > 100 µM | > 100 µM | 7.79 µM | > 100 µM | > 100 µM | > 100 µM |  |  |  |  |  |  |  | 
15 | ClCCCc1ccccc1C1=NCCc2ccccc21 | > 100 µM | > 100 µM | > 100 µM | > 100 µM | > 100 µM | > 100 µM | > 100 µM | > 100 µM |  |  |  |  | > 100 µM |  |  |  | 
16 | O=C1CCCCC/C1=C\c1ccc([N+](=O)[O-])cc1 | > 100 µM |  | > 100 µM | 70.5 µM | > 100 µM |  | 74.4 µM | 59.9 µM | > 100 µM |  |  |  | 54.3 µM |  |  |  | 
17 | COc1c(O)c(C=O)c2c(O)c(-c3c(C)cc4c(C(C)C)c(OC)c(O)c(C=O)c4c3O)c(C)cc2c1C(C)C | 20.7 µM | 8.31 µM | > 100 µM | 37.6 µM |  | 9.69 µM | 19.3 µM | 16.9 µM | 18.8 µM |  |  |  |  |  |  |  | 
